The text below walks through data of article PMC11783601, “Analogue-Sensitive Inhibition of Histone Demethylases Uncovers Member-Specific Function in Ribosomal Protein Synthesis” (Journal of the American Chemical Society, 2025).

Entries after “also recorded” stand apart in the source; their conditions may differ.

The experiment deals with nascent protein synthesis in HEK293T cells. The experiment is described as follows: BONCAT: azidohomoalanine incorporation, TAMRA alkyne click, in-gel fluorescence. Type of experiment: cell-based, human. The text has this: Biochemical integrity and robust orthogonality of asKDM4-NOL pairs in cells strongly argue for their applicability in elucidating the regulatory functions of KDM4 members in cellular processes. […] To investigate the role of KDM4A in protein synthesis, we adapted the bioorthogonal noncanonical amino acid tagging (BONCAT) tactic which relies on the translational incorporation of an unnatural amino acid probe into newly synthesized proteins in cells (Figure 5A).[28] HEK293T cells expressing wild type KDM4A or its F185A mutant were treated with n-octyl IOX1 or 6A, and the synthesis of nascent proteins was tracked by pulsing the cells with azidohomoalanine (AHA). Isolated cellular extracts were subjected to copper-catalyzed click ligation with TAMRA alkyne,[50] separated on polyacrylamide gel and visualized at 532 nm light (lmax for TAMRA) to assess AHA incorporation. Overexpression of wild type KDM4A and the as variant (F185A) increased the amount of newly synthesized proteins compared to control vector-transfected cells (Figure 5B). […]
Millipore Ltd.) membrane was cut to size, activated with MeOH for 30 seconds and incubated in 10X SSC buffer for 5 minutes while shaking. The membrane was then placed on a 96-well Bio-Dot microfiltration apparatus (Bio-Rad), washed with 100µL of 10X SSC buffer and the RNA solution was applied, and vacuum filtered. Sample was then rinsed with 100µL of 10X SSC buffer.
The membrane was dried at 37 °C followed by crosslinking for 5 minutes with UV light at 254nm.
Membrane was then subject to the protocol mentioned in the section General Protocol for Western […]
16. Incorporation of Azidohomoalanine in HEK293T cells
HEK293T cells were passaged into a 6 well plate. The cells were grown overnight then transfected with 3 ug of indicated plasmid, KDM4A WT/F185A or KDM4D WT/F189A expression vector, […]
and 6 ug of Thermo Turbofect (FERR0531). KDM4A siRNA was transfected into cells using 10nM siRNA (Thermo 4392420) with 1:2 ug amount of Thermo Turbofect (FERR0531). Cells were washed 4 hours later and fresh DMEM was applied. The next day, the cells were treated with inhibitor (L-leucine NOG) and grown for 24 hours. […] The lysate was quantified with Bradford dye and 40 ug of lysate was incubated with 1 mM Tris[(1-benzyl-1H-1,2,3-triazol-4-yl)methyl]amine (TBTA […]
For analysis of AHA incorporation measured by fixed cell imaging, HEK293-T cells (ATCC CRL-1573) were grown in a 24 well plate (Corning) on poly-D-lysine (Gibco A3890401) treated glass coverslips (ThermoScientific 12-545-81P) overnight and transfected the next day with 500 ng KDM4A WT/F185A or Empty Vector (EV) equivalent using 1:2 ug of Thermo Turbofect (FERR0531). […]

Consider `CCCCCCCCOC(=O)C(=O)NC(CC(C)C)C(=O)O` [6A, L-Leu octyl-ester NOG], for which the “nascent protein synthesis (TAMRA in-gel fluorescence)” value is, setting by setting: (HEK293T cells expressing F185A, 6A) “sharp decline in protein synthesis; also recorded: subsequently inhibited”; (HEK293T cells, endogenous wild type KDM4A, 200 μM 6A) “no effect on protein synthesis; also recorded: failed to inhibit protein synthesis”.
In the case of `CCCCCCCCOC(=O)c1ccc(O)c2ncccc12` [n-octyl IOX1], the “nascent protein synthesis (TAMRA in-gel fluorescence)” value is, setting by setting: (HEK293T cells expressing wild type KDM4A, n-octyl IOX1) “sharp decline in protein synthesis; also recorded: subsequently inhibited”; (HEK293T cells, endogenous KDM4A, 10 μM n-octyl IOX1) “protein synthesis inhibition”.
